Laboratory results taken from patent US5217969A, “Benzoxazine derivatives as inhibitors of leukotrienes” (Imperial Chemical Industries PLC, priority 1990, dated 1993).

What was measured:
5-LO [1] = target: T1, 5-LO (Rattus norvegicus, UniProt P12527); test: test g) liberation of LTB4 induced by zymosan within an air pouch of male rats; format: in vivo; settings: oral
T1 construct: liberation of LTB4 induced by zymosan within an air pouch generated within the subcutaneous tissue of the back of male rats; endogenous in cells; host or cells: living male rats; endogenous enzyme of cells in the zymosan-inflamed subcutaneous air pouch
T1 sequence (P12527 1-673): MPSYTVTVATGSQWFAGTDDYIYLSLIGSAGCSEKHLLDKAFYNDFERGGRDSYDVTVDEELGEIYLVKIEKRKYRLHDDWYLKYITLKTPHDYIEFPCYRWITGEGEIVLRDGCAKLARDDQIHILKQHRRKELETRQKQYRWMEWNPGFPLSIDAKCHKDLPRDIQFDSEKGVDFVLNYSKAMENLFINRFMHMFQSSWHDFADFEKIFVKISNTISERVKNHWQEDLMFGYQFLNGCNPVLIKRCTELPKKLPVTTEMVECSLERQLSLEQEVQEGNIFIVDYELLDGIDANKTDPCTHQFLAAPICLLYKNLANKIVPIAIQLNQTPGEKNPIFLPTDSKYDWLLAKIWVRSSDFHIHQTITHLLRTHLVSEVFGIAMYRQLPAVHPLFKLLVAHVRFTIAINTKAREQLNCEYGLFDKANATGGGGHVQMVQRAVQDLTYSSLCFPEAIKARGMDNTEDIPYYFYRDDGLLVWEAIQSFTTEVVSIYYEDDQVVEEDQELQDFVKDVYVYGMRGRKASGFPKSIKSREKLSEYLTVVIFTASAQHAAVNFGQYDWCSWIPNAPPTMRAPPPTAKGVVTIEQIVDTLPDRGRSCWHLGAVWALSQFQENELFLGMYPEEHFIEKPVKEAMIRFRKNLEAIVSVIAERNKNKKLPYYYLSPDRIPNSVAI
Procedure: g) An in vivo system involving measuring the effects of a test compound administered orally against the liberation of LTB4 induced by zymosan within an air pouch generated within the subcutaneous tissue of the back of male rats. The rats are anaesthetised and air pouches are formed by the injection of sterile air (20 ml). A further injection of air (10 ml) is similarly given after 3 days. At 6 days after the initial air injection the test compound is administered (usually orally as the suspension produced when a solution of the test compound in dimethylsulphoxide is added to hydroxypropylmethylcellulose), followed by the intrapouch injection of zymosan (1 ml of a 1% suspension in physiological saline). After 3 hours the rats are killed, the air pouches are lavaged with physiological saline, and the specific radioimmunoassay described above is used to assay LTB4 in the washings. This test provides an indication of inhibitory effects against 5-LO in an inflammatory milieu.

5-LO [2] = target: T2, 5-LO (Homo sapiens, UniProt P09917); test: test b) heparinised human blood challenged with A23187, LTB4 radioimmunoassay; format: cell-based
T2 construct: heparinised human blood, prior to challenge with the calcium ionophore A23187; endogenous in cells; host or cells: heparinised human blood (endogenous enzyme of the blood cells)
T2 sequence (P09917 1-674): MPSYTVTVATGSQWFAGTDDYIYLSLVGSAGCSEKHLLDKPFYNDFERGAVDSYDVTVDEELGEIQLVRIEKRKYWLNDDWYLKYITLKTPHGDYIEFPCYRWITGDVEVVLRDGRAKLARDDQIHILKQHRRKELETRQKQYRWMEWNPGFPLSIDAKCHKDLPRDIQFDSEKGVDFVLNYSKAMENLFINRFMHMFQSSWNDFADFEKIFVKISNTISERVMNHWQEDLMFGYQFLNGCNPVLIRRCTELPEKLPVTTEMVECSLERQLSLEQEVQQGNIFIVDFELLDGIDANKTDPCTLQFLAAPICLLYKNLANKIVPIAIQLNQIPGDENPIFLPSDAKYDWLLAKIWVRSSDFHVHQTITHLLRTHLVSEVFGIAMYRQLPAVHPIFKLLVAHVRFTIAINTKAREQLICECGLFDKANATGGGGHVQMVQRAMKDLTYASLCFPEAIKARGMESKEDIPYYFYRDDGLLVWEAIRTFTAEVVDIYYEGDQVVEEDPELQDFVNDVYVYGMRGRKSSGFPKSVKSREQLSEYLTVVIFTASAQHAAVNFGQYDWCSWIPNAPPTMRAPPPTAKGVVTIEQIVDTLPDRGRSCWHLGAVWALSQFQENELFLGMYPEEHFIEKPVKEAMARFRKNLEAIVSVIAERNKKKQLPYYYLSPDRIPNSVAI
Procedure: b) An in vitro assay system involving incubating a test compound with heparinised human blood, prior to challenge with the calcium ionophore A23187 and then indirectly measuring the inhibitory effects on 5-LO by assaying the amount of LTB4 using the specific radioimmunoassays described by Carey and Forder (F. Carey and R. A. Forder, Prostaglandins, Leukotrienes Med., 1986, 22, 57; Prostaglandins, 1984, 28, 666; Brit. J. Pharmacol. 1985, 84, 34P) which involve the use of a protein-LTB4 conjugate produced using the procedure of Young et alia (Prostaglandins, 1983, 26(4), 605-613). The effects of a test compound on the enzyme cyclooxygenase (which is involved in the alternative metabolic pathway for arachidonic acid and gives rise to prostaglandins, thromboxanes and related metabolites) may be measured at the same time using the specific radioimmunoassay for thromboxane B2 (T×B2) described by Carey and Forder (see above). This test provides an indication of the effects of a test compound against 5-LO and also cyclooxygenase in the presence of blood cells and proteins. It permits the selectivity of the inhibitory effect on 5-LO or cyclooxygenase to be assessed.

ED50 (5-LO [1]) | IC50 (5-LO [2]) | Structure (SMILES)
1.5 mg/kg | 50 nM | COC1(c2cc(F)cc(OCc3ccc4c(c3)OC(C)(C)C(=O)N4C)c2)CCOCC1 [Example 2, 4-[5-fluoro-3-(2,2,4-trimethyl-3-oxo-2,3-dihydro-4H-1,4-benzoxazin-7-ylmethoxy)phenyl]-4-methoxytetrahydropyran]
0.15 mg/kg | 50 nM | COC1(c2cc(F)cc(Sc3ccc4c(c3)OCC(=O)N4C)c2)CCOCC1 [Example 5, 4-[5-fluoro-3-(4-methyl-3-oxo-2,3-dihydro-4H-1,4-benzoxazin-7-ylthio)phenyl]-4-methoxytetrahydropyran]
1.5 mg/kg | 300 nM | COC1(c2cc(F)cc(Sc3ccc4c(c3)OCC(=S)N4C)c2)CCOCC1 [Example 7, 4-[5-fluoro-3-(4-methyl-3-thioxo-2,3-dihydro-4H-1,4-benzoxazin-7-ylthio)phenyl]-4-methoxytetrahydropyran]
0.4 mg/kg | 40 nM | COC1(c2cc(F)cc(OCc3ccc4c(c3)OCC(=O)N4C)c2)CCOCC1 [Example 1, 4-[5-fluoro-3-(4-methyl-3-oxo-2,3-dihydro-4H-1,4-benzoxazin-7-ylmethoxy)phenyl]-4-methoxytetrahydropyran]
